In article PMC8582824, “Targeting DDX3X Helicase Activity with BA103 Shows Promising Therapeutic Effects in Preclinical Glioblastoma Models” (Cancers, 2021):

Tests used:
[1] = test system: β-catenin; test: β-catenin expression by Western blot and immunofluorescence; assay type: cell-based; settings: U87 and U251 cells, 48 h
Method: Cells were incubated for 15 min in lysis buffer containing 1% triton, 0.1% SDS, 2 mmol/L CaCl2, 10 mg/mL orthovanadate, and 1× protease inhibitors cocktail (Sigma-Aldrich, St. Louis, MO, USA). Forty micrograms of proteins were electrophoresed in 12% SDS-polyacrylamide gel, and then, the gel was placed onto a Trans-Blot Turbo mini nitrocellulose transfer pack and transferred using a Trans-Blot Turbo Transfer System (Bio-Rad Laboratories, Hercules, CA, USA). The membrane was incubated with […] primary antibody and then with […] horseradish peroxidase (HRP)-conjugated secondary antibodies (Santa Cruz Biotechnology, Dallas, TX, USA). […]
Cells grown on coverslips (2 × 10^4 cells/cm^2) were fixed in 4% w/v paraformaldehyde in PBS for 10 min at RT and permeabilized in PBS containing 0.1% v/v Triton X-100 for 5 min at RT. […] After extensive washings, cells were mounted with ProLong Gold antifade mounting medium (Life Technologies Corporation, Carlsbad, CA, USA) and observed by a fluorescence microscope equipped with a digital camera (AXIOPHOT, Carl Zeiss, Oberkochen, Germany).
To better characterize the antiproliferative effect of BA103, we performed further biological evaluation using GBM cell lines. The expression of DDX3X was evaluated in U87 and U251 cell lines by Western blot analysis in comparison with HepG2 cells, resulting in basally detectable mainly in U87 cells (Figure 6A). […]

[2] = test system: U87 cells xenograft; test: Subcutaneous U87 xenograft model of GBM; assay type: in vivo, CD1 nude mice; settings: 50 mg/kg i.p.
Method: Male CD1 nude mice (Charles River, Milan, Italy) were maintained under the guidelines established by our Institution (University of L’Aquila), complying with the Declaration of Helsinki, national and international laws and policies (European Economic Community Council Directive 86/609; Italian Legislative Decree 4.03.2014 n.26, Gazzetta Ufficiale della Repubblica Italiana no. 61, 4 March 2014). Before any invasive manipulation, mice were anesthetized with a mixture of ketamine (25 mg/mL)/xylazine (5 mg/mL). Tumor grafts were obtained by injecting s.c. 1 × 10^6 U87 cells in 100 µL of 12 mg/mL Matrigel (Becton Dickinson, Franklin Lakes, NJ, USA). Tumor growth was monitored daily by measuring the average tumor diameter, and mice were divided into experimental groups when the tumor reached a volume of approximately 50 mm^3. The tumor volume was calculated according to the formula 4/3πr^3, with r representing the […]. BA103 was administered i.p. in a saline solution containing 10% v/v DMSO and 10% v/v TWEEN 80. Each mouse received 50 mg/kg BA103, or vehicle, three times per week. Previous experiments with the same settings have permitted choosing the endpoint of 21 days considering the maximum mean volume of tumors in control mice that was compatible with no signs of distress. […]
Next, we tested our compound on U87 cells in a xenograft model of GBM. […] During the experiment, tumor growth was monitored measuring tumor volume, and at the end point, 21 days after the start point, mice were euthanized, and tumors were recovered and measured. […] Tumor masses were also analyzed for the expression of DDX3X, and all xenografts resulted positive for DDX3X expression, from both control and treated groups, with a spotted staining pattern (Figure 9D).
Figure 9 Biological activity of BA103 in xenograft models of GBM. […] Tumor growth was monitored by measuring tumor volume (B), and at the end point, tumors were weighed, and the resulting mean values for each group are reported in the histogram (C). […] Mice were monitored for two months after U87 cells inoculation.

- signs of distress in the receiving animal ([2]; two consecutive weeks): absence of any visible sign of distress
SMILES: CCCCc1cn(-c2ccc(NC(=O)Nc3ccccc3C(F)(F)F)cc2)nn1 [BA103, 1-(4-(4-Butyl-1H-1,2,3-triazol-1-yl)phenyl)-3-(2-(trifluoromethyl)phenyl)urea]
- expression of β-catenin [1]: reduction in the expression of β-catenin
- tumor growth (tumor volume) vs control ([2]; from the second week): reduction in tumor growth was evident
- reduction of mean tumor mass with respect to control group ([2]; three times per week for two weeks, end point 21 days): ~60%
